{"source": "patent US8426446B2", "about": "“Acrylamide derivative and use thereof in manufacture of medicament” (Beijing Shiqiao Biopharm Co. Ltd., priority 2009, dated 2013)"}
{"tested_on": "Human Leukemia Cell K562", "assay": "Inhibitory effects on Human Leukemia Cell K562 (MTT)", "type": "cell-based", "settings": "Homo sapiens, K562 cells, 72 h~120 h", "description": "K562 cells were seeded in RPMI1640 cell culture solution containing 10% of fetal calf serum (supplemented with 100 ku/L of penicillin and streptomycin each). Culture dish was placed in the cell incubator under 5% of CO2 at 37° C. The culture solution was centrifuged and replaced every 2-3 days to passage and collect cells.\nCells in logarithmic growth phase were formulated into the cell suspensions at the required concentration with RPMI1640 culture solution containing 10% fetal calf serum. The resulting mixture was added to 96-wells cell culture plate at 3,000 cells per well (100 μl); after 12 hours of culture, to each well was added different amount of stock solution. The final concentrations of the samples are 100 μg/ml, 10 μg/ml, 1 μg/ml, […], and 0.01 μg/ml respectively in triplicate. After 72 h˜120 h, supernatant was discarded. To each well was added […] fresh serum-free culture solution containing 5 mg/ml blue tetrazolium (MTT). After culturing for 4 hours at 37° C., the mixture was centrifuged at 3000 rpm/min and the supernatant was discarded. Formazan was dissolved with 200 μl DMSO. After vortex oscillation for 1 min, absorbance value (OD-value) was measured on microplate reader at the wavelength of 570/450 nm. Inhibition ratio=(control group OD-value−drug group OD-value)/control group OD-value×100%.", "units": {"IC50": "nM"}}
{"smiles": "Cc1ccc(C(=O)Nc2ccc(F)c(C(F)(F)F)c2)cc1NC(=O)/C=C/c1cccnc1", "note": "[compound 60, N-(4-fluoro-3-(trifluoromethyl)phenyl)-4-methyl-3-(3-(pyridin-3-yl)acrylamido)benzamide]", "IC50": "< 1"}
{"smiles": "Cc1ccc(NC(=O)c2ccc(C)c(NC(=O)/C=C/c3cccnc3)c2)cc1F", "note": "[compound 61, N-(3-fluoro-4-methylphenyl)-4-methyl-3-(3-(pyridin-3-yl)acrylamido)benzamide]", "IC50": "< 1"}
{"smiles": "Cc1ccc(C(=O)Nc2ccc(C)c(C(F)(F)F)c2)cc1NC(=O)/C=C/c1cccnc1", "note": "[compound 62, N-(4-methyl-3-(trifluoromethyl)phenyl)-4-methyl-3-(3-(pyridin-3-yl)acrylamido)benzamide]", "IC50": "< 1"}
{"smiles": "Cc1ccc(NC(=O)c2ccc(C)c(NC(=O)/C=C/c3cccnc3)c2)cc1", "note": "[compound 66, N-(4-(methyl)phenyl)-4-methyl-3-(3-(pyridin-3-yl)acrylamido)benzamide]", "IC50": "2 to 20"}
{"smiles": "Cc1ccc(C(=O)Nc2c(C)cccc2Cl)cc1NC(=O)/C=C/c1cccnc1", "note": "[compound 67, N-(2-chloro-6-methylphenyl)-4-methyl-3-(3-(pyridin-3-yl)acrylamido)benzamide]", "IC50": "2 to 20"}
{"smiles": "Cc1ccc(C(=O)Nc2ccc(N3CCOCC3)c(C(F)(F)F)c2)cc1NC(=O)/C=C/c1cccnc1", "note": "[compound 69, N-(4-(morpholin-4-yl)-3-(trifluoromethyl)phenyl)-4-methyl-3-(3-(pyridin-3-yl)acrylamido)benzamide]", "IC50": "< 1"}
{"smiles": "Cc1ccc(C(=O)Nc2ccc(N3CCN(C)CC3)c(C(F)(F)F)c2)cc1NC(=O)/C=C/c1cccnc1", "note": "[compound 71, N-(4-(4-methylpiperazin-1-yl)-3-(trifluoromethyl)phenyl)-4-methyl-3-(3-(pyridin-3-yl)acrylamido)benzamide]", "IC50": "< 1"}
{"smiles": "CCN1CCN(c2ccc(NC(=O)c3ccc(C)c(NC(=O)/C=C/c4cccnc4)c3)cc2C(F)(F)F)CC1", "note": "[compound 74, N-(4-(4-ethylpiperazin-1-yl)-3-(trifluoromethyl)phenyl)-4-methyl-3-(3-(pyridin-3-yl)acrylamido)benzamide]", "IC50": "2 to 20"}
{"smiles": "Cc1ccc(C(=O)Nc2ccc(C)c(C(F)(F)F)c2)cc1NC(=O)/C=C/c1cncnc1", "note": "[compound 77, N-(4-methyl-3-(trifluoromethyl)phenyl)-4-methyl-3-(3-(pyrimidin-5-yl)acrylamido)benzamide]", "IC50": "< 1"}
{"smiles": "Cc1ccc(C(=O)Nc2ccc(N3CCOCC3)c(C(F)(F)F)c2)cc1NC(=O)/C=C/c1cncnc1", "note": "[compound 78, N-(4-(morpholin-4-yl)-3-(trifluoromethyl)phenyl)-4-methyl-3-(3-(pyrimidin-5-yl)acrylamido)benzamide]", "IC50": "< 1"}
{"smiles": "Cc1ccc(C(=O)Nc2ccc(Cl)c(C(F)(F)F)c2)cc1NC(=O)/C=C/c1cncnc1", "note": "[compound 79, N-(4-chloro-3-(trifluoromethyl)phenyl)-4-methyl-3-(3-(pyrimidin-5-yl)acrylamido)benzamide]", "IC50": "2 to 20"}
{"smiles": "Cc1ccc(NC(=O)c2ccc(C)c(NC(=O)/C=C/c3cncnc3)c2)cc1F", "note": "[compound 80, N-(3-fluoro-4-methylphenyl)-4-methyl-3-(3-(pyrimidin-5-yl)acrylamido)benzamide]", "IC50": "2 to 20"}
{"smiles": "Cc1ccc(C(=O)Nc2ccc(F)c(Cl)c2)cc1NC(=O)/C=C/c1cncnc1", "note": "[compound 81, N-(3-chloro-4-fluorophenyl)-4-methyl-3-(3-(pyrimidin-5-yl)acrylamido)benzamide]", "IC50": "< 20"}
{"smiles": "Cc1ccc(C(=O)Nc2c(C)cccc2Cl)cc1NC(=O)/C=C/c1cncnc1", "note": "[compound 82, N-(2-chloro-6-methylphenyl)-4-methyl-3-(3-(pyrimidin-5-yl)acrylamido)benzamide]", "IC50": "< 20"}
{"smiles": "Cc1cn(-c2cc(NC(=O)c3ccc(C)c(NC(=O)/C=C/c4cncnc4)c3)cc(C(F)(F)F)c2)cn1", "note": "[compound 90, N-(3-(4-methyl-1H-imidazol-1-yl)-5-(trifluoromethyl)phenyl)-4-methyl-3-(3-(pyrimidin-5-yl)acrylamido)benzamide]", "IC50": "< 1"}
{"smiles": "Cc1ccc(NC(=O)Nc2ccc(F)c(Cl)c2)cc1NC(=O)/C=C/c1cccnc1", "note": "[compound 102, N-(5-(3-(3-chloro-4-fluorophenyl)ureido)-2-methylphenyl)-3-(pyridin-3-yl)acrylamide]", "IC50": "10 to 20"}
